# Data taken from patent US20250249110A1, “ANTIMICROBIAL PEPTIDE DERIVATIVE AND USE THEREOF” (SICHUAN UNIVERSITY, priority 2016, published 2025).
# Where a SMILES comes first, the peptide text is derived from it. The star is where a group is joined. Succinyl(4-O-cholesteryl) = CC(C)CCC[C@@H](C)[C@H]1CC[C@H]2[C@@H]3CC=C4C[C@@H](OC(=O)CCC(=O)*)CC[C@]4(C)[C@H]3CC[C@]12C
# How the values were obtained:
# mouse PBMC = experiment: Immune-related cytokine expression by Q-PCR after PBMC stimulation; format: cell-based
# Description: In order to determine the changes of cytokines in mouse PBMC after DP7-C stimulation, the isolated mouse PBMC is diluted to 1×10^6 cells/mL and added to a 6-well plate at 2 ml/well, in which the stimulation concentration of DP7-C is 200 μg/ml and the stimulation time is 4 h. After stimulation, the cells are collected and stored in a −80° C. refrigerator. Meanwhile, in order to verify whether DP7-C can reverse LPS-induced inflammatory reaction, an experiment is set up to stimulate PBMC together with LPS: PBMC is diluted to 1×10^6 cells/ml and added to a 6-well plate at 2 mL/well in which the stimulation concentration of DP7-C is 200 μg/mL; after 1 h, stimulated by LPS for 4 h, and cells are collected and stored in −80° C. refrigerator. After all samples are collected, the following steps are performed, including centrifugation, washing, total RNA extraction, reverse transcription and real-time quantitative PCR.
# DC cells = experiment: Uptake of OVA antigen by dendritic cells (flow cytometry); format: cell-based, mouse; conditions: 3 h
# Description: DC cells are the most powerful antigen presenting cells in the body, which can absorb foreign substances, process and present them to T cells to stimulate immune response. DC cells play an important role in T cell immune response and production of T cell dependent antibody. We examined the effect of DP7-C on DC presenting antigen by flow cytometry.
# The experimental steps are as follows: • (1) Isolate C57/BL mouse primary bone marrow cells and incubate in the induced medium containing 10 ng/ml of GM-CSF and 10 ng/ml of IL-4 for 5 days. • (2) Add the OVA protein markers FITC, OVA or DP7-C/OVA into DC cell culture, mix well and incubate for 3 h. • (3) Collect the stimulated DC cells, wash with PBS twice, re-suspend the cells in 300 μL of PBS, and perform flow cytometry.
# splenic lymphocytes = experiment: Cellular immune response of splenic lymphocytes (intracellular cytokine flow cytometry); format: cell-based, mouse; conditions: spleen of immunized mice, OVA restimulation
# Source text: […]
# NY-ESO-1+B16 tumor cells = experiment: NY-ESO-1 vaccine, preventive and therapeutic NY-ESO-1+ B16 tumor models; format: in vivo, mouse; conditions: both preventive and therapeutic model; NY-ESO-1 protein antigen
# Description: The specific steps are as follows: • (1) Vaccine preparation
# Incubate 20 μg of CpG and 40 μg of DP7-C at 37° C. for 15 min, add 5 μg of NY-ESO-1 protein, and replenish to a volume of 100 μl with sterile PBS. • (2) Grouping and dosage regimen
# In this study, animal experiments are divided into […]: NS, CpG, DP7-C and CpG/DP7-C, 10 mice for each group, and the dosage of each mouse is as follows: • (1) NS group: 100 μl of PBS; • (2) CpG group: 5 μg of NY-ESO-1 protein+20 μg of CpG; • (3) DP7-C group: 5 μg of NY-ESO-1 protein+40 μg of DP7-C; • (4) CpG/DP7-C group: 5 μg of NY-ESO-1 protein+20 μg of CpG+40 μg DP7-C;
# The total dosage of each mouse is 100 μl; if the dosage is less than 100 μl, sterile PBS may be added to reach 100 μl. • (3) Preventive immunity tumor model: perform subcutaneous immunotherapy at multiple sites on weeks 0, 2 and 4, and detect total antibody titers before inoculate tumor on week 5. Subcutaneously inoculate the tumor cells NY-ESO-1+B16: […] at the back of each mouse. After the tumor grows out, measure it at intervals of 3 days. Calculation formula of tumor volume: 0.52×length×width^2. Therapeutic immune tumor model: subcutaneously inoculate 2×10^5 of NY-ESO-1^+B16 tumor cells at the back of each mouse on day 0, and immunize on day 5 (once a week, for 3 consecutive times). Measure at intervals of 3 days and observe the survival time after the tumor grows out.
# B16 mouse melanoma cells = experiment: FAM-siRNA transfection efficiency in vitro, B16; format: cell-based; conditions: FAM-siRNA 1 μg, flow cytometry
# Description: In 24 h before transfection, the C26 mouse colon cancer cells or B16 mouse melanoma cells are laid in a 6-well plate with a density of 5×10^4 cells per well, and 2 ml of DMEM medium containing 20% FBS is added to each well. FAM-modified no-sense siRNA (FAM-siRNA) is used as a reporter gene to detect transfection efficiency, while PEI25K and Lipofectamin2000 are used as positive controls. During transfection, the medium is firstly replaced with 1 ml of serum-free DMEM medium. Subsequently, the gene transfection complexes mixed at different proportions are added to each well, and each complex contains 1 μg of FAM-siRNA. Among them, the ratio of siRNA/DP7-C, siRNA/PEI25K and siRNA/Lipofectamin2000 is 1:5, 1:2 and 1:2 respectively. After the medium is incubated at 37° C. for 4 h, it is replaced by DMEM medium supplemented with 20% FBS and sequentially incubated. After 24 h, the transfection is observed under a microscope and photographed. All cells in the wells including floating and adherent cells are collected, washed twice with precooled PBS, and the total fluorescence intensity of each group is counted by flow cytometer (EPICS Elite ESP, USA).
smiles,measurement,setting,value
"CC[C@H](C)[C@H](NC(=O)[C@H](CCCNC(=N)N)NC(=O)[C@H](Cc1c[nH]c2ccccc12)NC(=O)[C@H](CCC(N)=O)NC(=O)[C@@H](NC(=O)CCC(=O)O[C@H]1CC[C@@]2(C)C(=CC[C@H]3[C@@H]4CC[C@H]([C@H](C)CCCC(C)C)[C@@]4(C)CC[C@@H]32)C1)C(C)C)C(=O)N[C@@H](CCCNC(=N)N)C(=O)N[C@H](C(=O)N[C@@H](C)C(=O)N[C@H](C(=O)N[C@H](C(=O)N[C@@H](CCCNC(=N)N)C(=O)N[C@@H](CCCCN)C(N)=O)[C@@H](C)CC)C(C)C)C(C)C [DP7-C, Chol-suc-VQWRIRVAVIRK-NH2] ({Succinyl(4-O-cholesteryl)}-VQWRIRVAVIRK-NH2)","gene expression of IL-1β, MCP-1 and TNF-α",mouse PBMC; 200 μg/mL DP7-C together with LPS,significantly reduced
same,"expression of IL-1, IL-6, MCP-1, M-CSF, TNF-α and other cytokines related to immune activation","mouse PBMC; 200 μg/ml, 4 h",greatly increased
same,uptake of antigen by DC cells,DC cells; 2.5 μg/ml,significantly increase
same,uptake of OVA by DC cells,DC cells; 40 μg/ml,slightly enhanced
same,"percentage of CD4+/IFN-γ+, CD8+/IFN-γ+ and CD4+/IL-17A+ cells",splenic lymphocytes,increased
same,tumor growth,NY-ESO-1+B16 tumor cells,inhibit tumor growth to some extent
same,transfection efficiency,B16 mouse melanoma cells,53.3 ± 4.0%
